# Results taken from US20230149508A1, “COMPOSITIONS AND METHODS FOR TREATING COMPLICATIONS OF VIRAL INFECTIONS AND OTHER RESPIRATORY DISORDERS” (priority 2020, published 2023).
# Entries after “also recorded” stand apart in the source; their conditions may differ. Peptide text beside a SMILES is read from it. * marks the point of attachment. Biotin = O=C1N[C@H]2[C@H](CS[C@H]2CCCCC(=O)*)N1; Ahx = NCCCCCC(=O)O
# Tests used:
# [1] = test system: C57BL/6 mice intranasally challenged with a lethal dose of lipopolysaccharide (LPS); assay: Lethal LPS-induced lung injury (ARDS) mouse model, survival; type: in vivo; settings: p<0.01 vs LPS, n=10/group
# Description: C57BL/6 mice were pretreated with either 1000 uM aCT1, 1000 uM scrambled aCT1, or vehicle control prior to inoculation with a lethal dose (35 mg/kg/mouse) of LPS. A further group was treated with aCT1 6 hrs post inoculation of LPS. n=10/group (p<0.01 LPS vs LPS pre-aCT1, p<0.01 LPS vs LPS post aCT1).
# Studies were undertaken to assess whether delivery of aCT1 to the respiratory tract in animal models of ARDS would reduce epithelial and endothelial breakdown, thereby preserving the air-liquid barrier while preventing fluid accumulation and reducing immune cell infiltration, resulting in the amelioration of ARDS pathology and preserving lung function to improve survival. Using a well characterized mouse model of ARDS, we investigated whether aCT1 applied directly to the lungs could inhibit severe endotoxin induced lung injury. C57BL/6 mice were intranasally challenged with a lethal dose of lipopolysaccharide (LPS) and were treated with aCT1 immediately prior to LPS administration, or 6 h post LPS exposure (FIG. 2).
# [2] = test system: rats; assay: Intravenous (bolus) toxicity of aCT1 in rats; type: in vivo, rat; settings: intravenous bolus
# Description: (§1) Clinical signs were only observed at aCT1 administration levels that are well above the therapeutic range of efficacy, following intravenous administration of aCT1 at ≥10 mg/kg (Maximum Tolerated Dose). The results of these studies uniformly support aCT1 tolerability when delivered locally and systemically via various routes.
# [3] = Intravenous (bolus) toxicity of aCT1 in rats; type: in vivo, rat; settings: rat, in vivo
# Description: as §1
# [4] = test system: normal human bronchial epithelial cells (NHBE); assay: Trans-epithelial resistance (TER) of NHBE monolayers after H2O2 exposure; type: cell-based; settings: aCT1 pre-treatment, exposure to 100 mM H2O2; n=3
# Description: (n=3, compared to H2O2 *:p<0.05, **:p<0.01, ***:p<0.0001)
# (§2) To determine if aCT1 treatment preserves junctional integrity in human lung cells, human bronchial epithelial cells (NHBEs) were grown as confluent monolayers on Transwell inserts and trans-epithelial resistance (TER) recorded. TER readings measure electrical resistance across a cell monolayer and provide a quantitative metric of intercellular junction integrity.
# [5] = test system: human subjects; settings: local (topical) delivery, clinical trials; cited from earlier work
# [6] = test system: Human lung microvascular endothelial cells (HLMEC); assay: TER of HLMEC after LPS exposure; type: cell-based; settings: n=3, p<0.0001 vs LPS
# Description: Human lung microvascular endothelial cells (HLMEC) were exposed to 10 μg LPS. Cells were treated with aCT1 prior to exposure or 24 hrs post LPS insult, scrambled control, or sham control. […] (n=3, compared to LPS ***:p<0.0001).
# as §2
# [7] = test system: human subjects; settings: in vivo
# From the text: (§3) Clinical trials have been undertaken to assess safety of topical delivery of aCT1.
# [8] = From the text: as §3
compound,measurement,setting,value
CC[C@H](C)[C@H](NC(=O)[C@H](CCC(=O)O)NC(=O)[C@H](CC(C)C)NC(=O)[C@H](CC(=O)O)NC(=O)[C@H](CC(=O)O)NC(=O)[C@@H]1CCCN1C(=O)[C@H](CCCNC(=N)N)NC(=O)[C@@H]1CCCN1C(=O)[C@H](CCCNC(=N)N)NC(=O)[C@H](CCCCN)NC(=O)[C@H](CCCCN)NC(=O)[C@H](Cc1c[nH]c2ccccc12)NC(=O)[C@@H]1CCCN1C(=O)[C@H](CCCCN)NC(=O)[C@H](CCCNC(=N)N)NC(=O)[C@H](CCCNC(=N)N)NC(=O)[C@H](CC(N)=O)NC(=O)[C@@H]1CCCN1C(=O)[C@H](Cc1ccccc1)NC(=O)[C@H](Cc1c[nH]c2ccccc12)NC(=O)[C@@H](NC(=O)[C@H](CCCCN)NC(=O)[C@@H]1CCCN1C(=O)[C@H](CCC(N)=O)NC(=O)[C@H](CCCNC(=N)N)NC(=O)CCCCCNC(=O)CCCC[C@@H]1SC[C@@H]2NC(=O)N[C@@H]21)[C@@H](C)CC)C(=O)O [aCT1] ({Biotin-Ahx}-RQPKIWFPNRRKPWKKRPRPDDLEI-OH; N-terminus and C-terminus assumed),Survival / LPS-induced mortality,[1]; aCT1 treatment 6 hrs post LPS inoculation (35 mg/kg/mouse),significant protection against LPS-induced mortality; also recorded: significantly improved survival
same,Survival / LPS-induced mortality,[1]; intranasal 1000 uM aCT1 pre-treatment prior to lethal LPS (35 mg/kg/mouse),significant protection against LPS-induced mortality; also recorded: significantly improved survival
same,Tolerability,[2],well tolerated
same,MTD,"[3]; intravenous administration, read-out: Dose at which clinical signs were observed (Maximum Tolerated Dose)",≥ 10 mg/kg
same,NOAEL,"[3]; intravenous bolus, read-out: no-observable-adverse-effect level (NOAEL)",5 mg/kg
same,TER (epithelial barrier integrity),[4],significantly increased TER readings; also recorded: stabilized intercellular junctions
same,Efficacy and safety in acute and chronic skin injuries,[5],demonstrated the efficacy and safety
same,TER (endothelial barrier integrity),[6]; aCT1 pre-treatment prior to 10 μg LPS,significantly improved endothelial TER readings; also recorded: preserved barrier integrity
same,TER (endothelial barrier integrity),[6]; aCT1 treatment 24 hrs post LPS insult (10 μg LPS),significantly improved endothelial TER readings; also recorded: preserved barrier integrity
same,Drug related adverse events,[7],no drug related adverse events
same,Systemic exposure (pharmacokinetic studies in clinical trials),[7],no systemic exposure
same,Immunogenicity (anti-aCT1 antibodies),[8]; any preclinical study or clinical trial,not immunogenic
same,half-life,[8]; human,15 to 20 min
